Test results: US20090018111A1, “Novel Antimicrobial Medicament” (priority 2004, published 2009)
Like-named read-outs stand apart in the source and are kept apart here.

Key:
Experiment in all cases: Sensitivity test (agar dilution), clinical isolate
Format in all cases: cell-based, Pseudomonas aeruginosa
P. aeruginosa 15036 = system: P. aeruginosa 15036
Procedure: (§1) In addition, the antibacterial activities were tested against strains which are comparatively less sensitive to β-lactam compounds, namely clinically isolated 13 strains of Acinetobacter calcoaceticus and Acinetobacter lwoffi, clinically isolated 11 strains of Serratia marcescens, clinically isolated 12 strains of Burkholderia cepacia, and clinically isolated 15 strains of Pseudomonas aeruginosa.
(§2) According to the standard method of Japan Chemotherapeutic Society (Chemotherapy, vol. […], p 76-79 (1981)) the test was carried out using the agar dilution method. After dissolving test samples in distilled water, agar medium containing the test samples was prepared in such a manner that the final concentration became twice serial dilution by pouring serially diluted combination drug solution or a single drug solution into agar medium. As agar medium was used Mueller Hinton Agar medium (MHA). Then, each strain was cultivated over night at 37° C. in an incubator and suspended in buffered saline solution with gelatin (BSG) in the concentration of about 10^6 CFU/ml. The suspension (about 5 μl) containing test strains was inoculated to the medium containing the test samples by Micro Planter.
(§3) Each drug was weighed, and dissolved in distilled water to give a test sample. When the drugs are used in combination, two kinds of solution containing each drug were mixed so as to be various ratio of concentration to give a mixed solution. When the sample is subjected to sensitivity test, this mixed solution was diluted by twice serial dilution method.
(§4) Furthermore, when the drug is solely used, each test sample was used as it is, and diluted by twice serial dilution method from the maximum concentration to the minimum concentration.

P. aeruginosa 15040 = system: P. aeruginosa 15040
Procedure: as §1, §2, §3, §4

P. aeruginosa 12790 = system: P. aeruginosa 12790
Procedure: as §1, §2, §3, §4

P. aeruginosa 13280 = system: P. aeruginosa 13280
Procedure: as §1, §2, §3, §4

P. aeruginosa 15039 = system: P. aeruginosa 15039
Procedure: as §1, §2, §3, §4

P. aeruginosa 13221 = system: P. aeruginosa 13221
Procedure: as §1, §2, §3, §4

P. aeruginosa 13224 = system: P. aeruginosa 13224
Procedure: as §1, §2, §3, §4

P. aeruginosa 13272 = system: P. aeruginosa 13272
Procedure: as §1, §2, §3, §4

P. aeruginosa 15019 = system: P. aeruginosa 15019
Procedure: as §1, §2, §3, §4

P. aeruginosa 13269 = system: P. aeruginosa 13269
Procedure: as §1, §2, §3, §4

[1] = Pseudomonas aeruginosa, 15036, Concomitant (ME:SM = 1:1)
[2] = Pseudomonas aeruginosa, 15036, Concomitant (ME:SM = 1:2)
[3] = Pseudomonas aeruginosa, 15036, Concomitant (ME:SM = 1:4)
[4] = Pseudomonas aeruginosa, 15036, Concomitant (ME:SM = 2:1)
[5] = Pseudomonas aeruginosa, 15036, alone
[6] = Pseudomonas aeruginosa, 15040, Concomitant (ME:SM = 1:1)
[7] = Pseudomonas aeruginosa, 15040, Concomitant (ME:SM = 1:2)
[8] = Pseudomonas aeruginosa, 15040, Concomitant (ME:SM = 1:4)
[9] = Pseudomonas aeruginosa, 15040, Concomitant (ME:SM = 2:1)
[10] = Pseudomonas aeruginosa, 15040, alone
[11] = Pseudomonas aeruginosa, 12790, Concomitant (ME:SM = 1:1), read-out: MIC
[12] = Pseudomonas aeruginosa, 12790, Concomitant (ME:SM = 1:4), read-out: MIC
[13] = Pseudomonas aeruginosa, 12790, Concomitant (ME:SM = 2:1), read-out: MIC
[14] = Pseudomonas aeruginosa, 12790, alone, read-out: MIC
[15] = Pseudomonas aeruginosa, 13280, Concomitant (ME:SM = 1:1)
[16] = Pseudomonas aeruginosa, 13280, Concomitant (ME:SM = 1:2)
[17] = Pseudomonas aeruginosa, 13280, Concomitant (ME:SM = 1:4)
[18] = Pseudomonas aeruginosa, 13280, Concomitant (ME:SM = 2:1)
[19] = Pseudomonas aeruginosa, 13280, alone
[20] = Pseudomonas aeruginosa, 15039, Concomitant (ME:SM = 1:1)
[21] = Pseudomonas aeruginosa, 15039, Concomitant (ME:SM = 1:2)
[22] = Pseudomonas aeruginosa, 15039, Concomitant (ME:SM = 1:4)
[23] = Pseudomonas aeruginosa, 15039, Concomitant (ME:SM = 2:1)
[24] = Pseudomonas aeruginosa, 15039, alone
[25] = Pseudomonas aeruginosa, 13221, Concomitant (ME:SM = 1:4), read-out: MIC
[26] = Pseudomonas aeruginosa, 13221, Concomitant (ME:SM = 2:1), read-out: MIC
[27] = Pseudomonas aeruginosa, 13224, Concomitant (ME:SM = 1:1)
[28] = Pseudomonas aeruginosa, 13224, Concomitant (ME:SM = 1:2)
[29] = Pseudomonas aeruginosa, 13224, Concomitant (ME:SM = 1:4)
[30] = Pseudomonas aeruginosa, 13224, Concomitant (ME:SM = 2:1)
[31] = Pseudomonas aeruginosa, 13224, alone
[32] = Pseudomonas aeruginosa, 13272, Concomitant (ME:SM = 1:1)
[33] = Pseudomonas aeruginosa, 13272, Concomitant (ME:SM = 1:2)
[34] = Pseudomonas aeruginosa, 13272, Concomitant (ME:SM = 1:4)
[35] = Pseudomonas aeruginosa, 13272, Concomitant (ME:SM = 2:1)
[36] = Pseudomonas aeruginosa, 13272, alone
[37] = Pseudomonas aeruginosa, 15019, Concomitant (ME:SM = 1:1)
[38] = Pseudomonas aeruginosa, 15019, Concomitant (ME:SM = 1:2)
[39] = Pseudomonas aeruginosa, 15019, Concomitant (ME:SM = 1:4)
[40] = Pseudomonas aeruginosa, 15019, Concomitant (ME:SM = 2:1)
[41] = Pseudomonas aeruginosa, 15019, alone
[42] = Pseudomonas aeruginosa, 13269, Concomitant (ME:SM = 1:1)
[43] = Pseudomonas aeruginosa, 13269, Concomitant (ME:SM = 1:2)
[44] = Pseudomonas aeruginosa, 13269, Concomitant (ME:SM = 1:4)
[45] = Pseudomonas aeruginosa, 13269, Concomitant (ME:SM = 2:1)
[46] = Pseudomonas aeruginosa, 13269, alone

C[C@H]1C=C(c2csc(SC3=C(C(=O)O)N4C(=O)[C@H]([C@@H](C)O)[C@H]4[C@H]3C)n2)CN1 [SM, (4R,5S,6S)-6-[(1R)-1-Hydroxyethyl]-4-methyl-3-({4-[(5S)-5-methyl-2,5-dihydro-1H-pyrrol-3-yl]-1,3-thiazol-2-yl}sulfanyl)-7-oxo-1-azabicyclo[3.2.0]hept-2-ene-2-carboxylic acid]
MIC (P. aeruginosa 15036; [1]): 2 µg/mL
MIC (P. aeruginosa 15036; [2]): 2 µg/mL
MIC (P. aeruginosa 15036; [3]): 8 µg/mL
MIC (P. aeruginosa 15036; [4]): 1 µg/mL
MIC (P. aeruginosa 15036; [5]): 8 µg/mL
MIC (P. aeruginosa 15040; [6]): 4 µg/mL
MIC (P. aeruginosa 15040; [7]): 4 µg/mL
MIC (P. aeruginosa 15040; [8]): 8 µg/mL
MIC (P. aeruginosa 15040; [9]): 2 µg/mL
MIC (P. aeruginosa 15040; [10]): 16 µg/mL
MIC (P. aeruginosa 12790; [11]): 0.063 µg/mL
MIC (P. aeruginosa 12790; Pseudomonas aeruginosa, 12790, Concomitant (ME:SM = 1:2), read-out: MIC): 0.25 µg/mL
MIC (P. aeruginosa 12790; [12]): 0.25 µg/mL
MIC (P. aeruginosa 12790; [13]): 0.016 µg/mL
MIC (P. aeruginosa 12790; [14]): 4 µg/mL
MIC (P. aeruginosa 13280; [15]): 4 µg/mL
MIC (P. aeruginosa 13280; [16]): 8 µg/mL
MIC (P. aeruginosa 13280; [17]): 16 µg/mL
MIC (P. aeruginosa 13280; [18]): 4 µg/mL
MIC (P. aeruginosa 13280; [19]): 32 µg/mL
MIC (P. aeruginosa 15039; [20]): 8 µg/mL
MIC (P. aeruginosa 15039; [21]): 16 µg/mL
MIC (P. aeruginosa 15039; [22]): 16 µg/mL
MIC (P. aeruginosa 15039; [23]): 4 µg/mL
MIC (P. aeruginosa 15039; [24]): 32 µg/mL
MIC (P. aeruginosa 13221; Pseudomonas aeruginosa, 13221, Concomitant (ME:SM = 1:1), read-out: MIC): 0.125 µg/mL
MIC (P. aeruginosa 13221; Pseudomonas aeruginosa, 13221, Concomitant (ME:SM = 1:2), read-out: MIC): 0.25 µg/mL
MIC (P. aeruginosa 13221; [25]): 0.25 µg/mL
MIC (P. aeruginosa 13221; [26]): 0.031 µg/mL
MIC (P. aeruginosa 13221; Pseudomonas aeruginosa, 13221, alone, read-out: MIC): 16 µg/mL
MIC (P. aeruginosa 13224; [27]): 4 µg/mL
MIC (P. aeruginosa 13224; [28]): 4 µg/mL
MIC (P. aeruginosa 13224; [29]): 8 µg/mL
MIC (P. aeruginosa 13224; [30]): 2 µg/mL
MIC (P. aeruginosa 13224; [31]): 16 µg/mL
MIC (P. aeruginosa 13272; [32]): 4 µg/mL
MIC (P. aeruginosa 13272; [33]): 4 µg/mL
MIC (P. aeruginosa 13272; [34]): 8 µg/mL
MIC (P. aeruginosa 13272; [35]): 2 µg/mL
MIC (P. aeruginosa 13272; [36]): 16 µg/mL
MIC (P. aeruginosa 15019; [37]): 4 µg/mL
MIC (P. aeruginosa 15019; [38]): 8 µg/mL
MIC (P. aeruginosa 15019; [39]): 8 µg/mL
MIC (P. aeruginosa 15019; [40]): 2 µg/mL
MIC (P. aeruginosa 15019; [41]): 16 µg/mL
MIC (P. aeruginosa 13269; [42]): 4 µg/mL
MIC (P. aeruginosa 13269; [43]): 4 µg/mL
MIC (P. aeruginosa 13269; [44]): 8 µg/mL
MIC (P. aeruginosa 13269; [45]): 2 µg/mL
MIC (P. aeruginosa 13269; [46]): 16 µg/mL

C[C@@H](O)[C@H]1C(=O)N2C(C(=O)O)=C(S[C@@H]3CN[C@H](C(=O)N(C)C)C3)[C@H](C)[C@H]12 [MEPM, meropenem]
MIC (P. aeruginosa 15036; [1]): 2 µg/mL
MIC (P. aeruginosa 15036; [2]): 1 µg/mL
MIC (P. aeruginosa 15036; [3]): 2 µg/mL
MIC (P. aeruginosa 15036; [4]): 2 µg/mL
MIC (P. aeruginosa 15036; [5]): 2 µg/mL
MIC (P. aeruginosa 15040; [6]): 4 µg/mL
MIC (P. aeruginosa 15040; [7]): 2 µg/mL
MIC (P. aeruginosa 15040; [8]): 2 µg/mL
MIC (P. aeruginosa 15040; [9]): 4 µg/mL
MIC (P. aeruginosa 15040; [10]): 4 µg/mL
MIC (P. aeruginosa 12790; Pseudomonas aeruginosa, 12790): 0.125 µg/mL
MIC (P. aeruginosa 12790; [11]): 0.063 µg/mL
MIC (P. aeruginosa 12790; [12]): 0.063 µg/mL
MIC (P. aeruginosa 12790; [13]): 0.031 µg/mL
MIC (P. aeruginosa 12790; [14]): 0.063 µg/mL
MIC (P. aeruginosa 13280; [15]): 4 µg/mL
MIC (P. aeruginosa 13280; [16]): 4 µg/mL
MIC (P. aeruginosa 13280; [17]): 4 µg/mL
MIC (P. aeruginosa 13280; [18]): 8 µg/mL
MIC (P. aeruginosa 13280; [19]): 8 µg/mL
MIC (P. aeruginosa 15039; [20]): 8 µg/mL
MIC (P. aeruginosa 15039; [21]): 8 µg/mL
MIC (P. aeruginosa 15039; [22]): 4 µg/mL
MIC (P. aeruginosa 15039; [23]): 8 µg/mL
MIC (P. aeruginosa 15039; [24]): 8 µg/mL
MIC (P. aeruginosa 13221; Concomitant (ME:SM = 1:1)): 0.125 µg/mL
MIC (P. aeruginosa 13221; Concomitant (ME:SM = 1:2)): 0.125 µg/mL
MIC (P. aeruginosa 13221; Pseudomonas aeruginosa, 13221): 0.125 µg/mL
MIC (P. aeruginosa 13221; [25]): 0.063 µg/mL
MIC (P. aeruginosa 13221; [26]): 0.063 µg/mL
MIC (P. aeruginosa 13224; [27]): 4 µg/mL
MIC (P. aeruginosa 13224; [28]): 2 µg/mL
MIC (P. aeruginosa 13224; [29]): 2 µg/mL
MIC (P. aeruginosa 13224; [30]): 4 µg/mL
MIC (P. aeruginosa 13224; [31]): 4 µg/mL
MIC (P. aeruginosa 13272; [32]): 4 µg/mL
MIC (P. aeruginosa 13272; [33]): 2 µg/mL
MIC (P. aeruginosa 13272; [34]): 2 µg/mL
MIC (P. aeruginosa 13272; [35]): 4 µg/mL
MIC (P. aeruginosa 13272; [36]): 4 µg/mL
MIC (P. aeruginosa 15019; [37]): 4 µg/mL
MIC (P. aeruginosa 15019; [38]): 4 µg/mL
MIC (P. aeruginosa 15019; [39]): 2 µg/mL
MIC (P. aeruginosa 15019; [40]): 4 µg/mL
MIC (P. aeruginosa 15019; [41]): 4 µg/mL
MIC (P. aeruginosa 13269; [42]): 4 µg/mL
MIC (P. aeruginosa 13269; [43]): 2 µg/mL
MIC (P. aeruginosa 13269; [44]): 2 µg/mL
MIC (P. aeruginosa 13269; [45]): 4 µg/mL
MIC (P. aeruginosa 13269; [46]): 4 µg/mL
